The values that follow come from ChEMBL document CHEMBL4725392, “Orally Bioavailable Small-Molecule CD73 Inhibitor (OP-5244) Reverses Immunosuppression through Blockade of Adenosine Production” (J Med Chem, 2020).

pIC50: −log10 of the molar value.

For the experiment, the target named is 5'-nucleotidase (Homo sapiens, UniProt P21589). Kind of experiment: Inhibition of human C-terminal His6-tagged CD73 expressed in CHO cells preincubated for 15 mins followed by AMP addition and measured after 10 mins by malachite green reagent based assay. It is filed as cell-based.
Chain of 5'-nucleotidase (P21589 whole entry): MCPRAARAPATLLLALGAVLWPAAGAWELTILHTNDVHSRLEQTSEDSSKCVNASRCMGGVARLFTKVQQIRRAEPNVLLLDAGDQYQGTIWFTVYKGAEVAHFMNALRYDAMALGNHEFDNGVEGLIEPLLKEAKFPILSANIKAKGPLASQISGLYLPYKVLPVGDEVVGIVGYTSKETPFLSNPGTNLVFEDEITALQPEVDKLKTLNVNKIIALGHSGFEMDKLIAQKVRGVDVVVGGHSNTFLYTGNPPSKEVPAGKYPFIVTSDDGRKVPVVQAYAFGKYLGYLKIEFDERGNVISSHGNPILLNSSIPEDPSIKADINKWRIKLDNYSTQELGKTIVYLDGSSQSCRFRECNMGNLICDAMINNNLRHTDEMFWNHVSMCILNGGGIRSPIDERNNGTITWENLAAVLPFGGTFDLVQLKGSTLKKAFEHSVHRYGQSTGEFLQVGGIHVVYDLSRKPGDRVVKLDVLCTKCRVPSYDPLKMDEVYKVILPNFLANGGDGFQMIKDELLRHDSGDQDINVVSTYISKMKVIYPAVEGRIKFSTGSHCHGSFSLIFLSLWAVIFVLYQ

For `O=P(O)(O)C(OC[C@H]1O[C@@H](n2ncc3c(NC4CCCC4)nc(Cl)nc32)[C@H](O)[C@@H]1O)C(F)(F)F` (mixture of isomers), the pIC50 was 6.41.
The result for `CN(CC(C)(OC[C@H]1O[C@@H](n2ncc3c(NC4CCCC4)nc(Cl)nc32)[C@H](O)[C@@H]1O)P(=O)(O)O)S(C)(=O)=O` (mixture of isomers) reads 7.01; that for `CC(CO)(OC[C@H]1O[C@@H](n2ncc3c(NC4CCCC4)nc(Cl)nc32)[C@H](O)[C@@H]1O)P(=O)(O)O` (mixture of isomers), 8.89; that for `CC(OC[C@H]1O[C@@H](n2ncc3c(NC4CCCC4)nc(Cl)nc32)[C@H](O)[C@@H]1O)P(=O)(O)O` (mixture of isomers), 7.74.
The result for `COCC(CO)(OC[C@H]1O[C@@H](n2ncc3c(NC4CCCC4)nc(Cl)nc32)[C@H](O)[C@@H]1O)P(=O)(O)O` (mixture of isomers) reads 9.28.
Then `O=P(O)(O)CSC[C@H]1O[C@@H](n2ncc3c(NCc4ccccc4Cl)nc(Cl)nc32)[C@H](O)[C@@H]1O`, with 6.79; and `CN(c1nc(Cl)nc2c1cnn2[C@@H]1O[C@H](COP(=O)(O)CP(=O)(O)O)[C@@H](O)[C@H]1O)[C@H]1CCc2ccccc21`, with 9.28; and `CC(CS(C)(=O)=O)(OC[C@H]1O[C@@H](n2ncc3c(NC4CCCC4)nc(Cl)nc32)[C@H](O)[C@@H]1O)P(=O)(O)O` (mixture of isomers), with 7.64.
`COP(=O)(O)CP(=O)(O)OC[C@H]1O[C@@H](n2ncc3c(NCc4ccccc4Cl)nc(Cl)nc32)[C@H](O)[C@@H]1O` gave a pIC50 of 6.88.
`COP(=O)(CP(=O)(O)O)OC[C@H]1O[C@@H](n2ncc3c(NCc4ccccc4Cl)nc(Cl)nc32)[C@H](O)[C@@H]1O` (some centres undefined) gave a negative-log IC50 (pIC50) of 7.61.
The result for `CN(C)CC(C)(OC[C@H]1O[C@@H](n2ncc3c(NC4CCCC4)nc(Cl)nc32)[C@H](O)[C@@H]1O)P(=O)(O)O` (mixture of isomers) reads less than 5.30; that for `O=P(O)(O)COC[C@H]1O[C@@H](n2ncc3c(NC4CCCC4)nc(Cl)nc32)[C@H](O)[C@@H]1O`, 7.96.
The molecule `CN(C[C@H]1O[C@@H](n2ncc3c(NCc4ccccc4Cl)nc(Cl)nc32)[C@H](O)[C@@H]1O)C(=O)CP(=O)(O)O` had a negative logarithm of the IC50 (pIC50) of 6.61. This pIC50 lies 1.35 log units lower than the previous one.
The result for `COCC(OC[C@H]1O[C@@H](n2ncc3c(NC4CCCC4)nc(Cl)nc32)[C@H](O)[C@@H]1O)P(=O)(O)O` (mixture of isomers) reads 9.02; that for `C[C@](CO)(OC[C@H]1O[C@@H](n2ncc3c(NC4CCCC4)nc(Cl)nc32)[C@H](O)[C@@H]1O)P(=O)(O)O`, 7.93; that for `O=P(O)(O)CP(=O)(O)OC[C@H]1O[C@@H](n2nnc3c(NCc4ccccc4Cl)nc(Cl)nc32)[C@H](O)[C@@H]1O`, 8.41.
The result for `COC[C@@](CO)(OC[C@H]1O[C@@H](n2ncc3c(NC4CCCC4)nc(Cl)nc32)[C@H](O)[C@@H]1O)P(=O)(O)O` reads 9.00; that for `N#CC(OC[C@H]1O[C@@H](n2ncc3c(NC4CCCC4)nc(Cl)nc32)[C@H](O)[C@@H]1O)P(=O)(O)O` (mixture of isomers), 6.25.
Then `O=P(O)(O)CS(=O)(=O)NC[C@H]1O[C@@H](n2ncc3c(NCc4ccccc4Cl)nc(Cl)nc32)[C@H](O)[C@@H]1O`, with 6.48; and `O=P(O)(O)CCOC[C@H]1O[C@@H](n2ncc3c(NCc4ccccc4Cl)nc(Cl)nc32)[C@H](O)[C@@H]1O`, with 7.06.
`O=C(CP(=O)(O)O)OC[C@H]1O[C@@H](n2ncc3c(NCc4ccccc4Cl)nc(Cl)nc32)[C@H](O)[C@@H]1O` had a pIC50 of 6.29. This pIC50 lies 0.77 log units lower than the previous one.
The result for `CN(c1nc(Cl)nc2c1nnn2[C@@H]1O[C@H](COP(=O)(O)CP(=O)(O)O)[C@@H](O)[C@H]1O)[C@H]1CCc2ccccc21` reads 8.89; that for `O=P(O)(O)C(CO)OC[C@H]1O[C@@H](n2ncc3c(NC4CCCC4)nc(Cl)nc32)[C@H](O)[C@@H]1O` (mixture of isomers), 8.62; that for `O=P(O)(O)COCC[C@H]1O[C@@H](n2ncc3c(NCc4ccccc4Cl)nc(Cl)nc32)[C@H](O)[C@@H]1O`, 5.92.
